Results on eleven molecules are retold here after ChEMBL document CHEMBL1201862, “PubChem BioAssay data set” (2004).

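Cultured in 96-well plates, cells were exposed to test compound for 48 hours across five concentrations. GI50: concentration for 50% inhibition of growth.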 Active and inactive are the calls of the source. Rule as the data show it: active = GI50 up to about 1.1 µM and inactive = higher.

Some test systems named below: 786-0; ACHN; CCRF-CEM; COLO 205; HCT-15; M14; MDA-MB-231; MDA-MB-435; MDA-N; MOLT-4; OVCAR-3; PC-3; SF-295; SK-MEL-28; SK-MEL-5; SK-OV-3; SNB-19; TK-10; UACC-257; K562.
What all share (assay): NCI-60 cell line screen, 48 h

`O=c1c2ccccc2nc2n1C(c1ccc([N+](=O)[O-])cc1)C2(c1ccccc1)c1ccccc1` (stereo not given): the GI50 with 786-0 was > 100 µM (inactive); in the experiment with ACHN it was > 100 µM (inactive); in the experiment with CCRF-CEM it was 8.45 µM (inactive); with COLO 205, 8.3 µM (inactive); with HCT-15, more than 100 µM; with M14, > 100 µM (inactive). The GI50 in the experiment on MDA-MB-231 is > 100 µM (inactive); in the experiment with MDA-MB-435, > 100 µM (inactive); in the experiment on MDA-N, > 100 µM (inactive); in the experiment on MOLT-4, 5.46 µM (inactive); with OVCAR-3, > 100 µM (inactive); in the experiment on PC-3 it was 24 µM (inactive). Besides, the GI50 in the experiment on SF-295 is > 100 µM (inactive); in the experiment with SK-MEL-28 it was > 100 µM (inactive); in the experiment with SK-MEL-5 it was > 100 µM (inactive); with SK-OV-3, > 100 µM (inactive); in the experiment on SNB-19, 14.5 µM (inactive); with TK-10 it was > 100 µM (inactive). In addition, the GI50 in the experiment with UACC-257 is > 100 µM (inactive).

As to `CC(C)=C[C@H]1C[C@H](C)[C@H]2CC[C@H](C)c3c2c1c(C)c1ncoc31`, the GI50 in the experiment with 786-0 was 18.5 µM (inactive); in the experiment on ACHN it was 18.1 µM (inactive); with CCRF-CEM, 17.7 µM (inactive); in the experiment on COLO 205, 16.7 µM (inactive); with HCT-15, 19.1 µM; in the experiment with K562, 21.4 µM (inactive). Moreover, the GI50 with M14 is 15 µM (inactive); in the experiment on MDA-MB-231, 20.4 µM (inactive); in the experiment with MDA-MB-435, 17.8 µM (inactive); in the experiment with MDA-N, 17.5 µM (inactive); in the experiment with MOLT-4, 14.1 µM (inactive); with OVCAR-3, 15.1 µM (inactive). In addition, the GI50 with PC-3 was 17 µM (inactive); with SF-295, 17 µM (inactive); with SK-MEL-28, 18.7 µM (inactive); in the experiment with SK-MEL-5, 13.9 µM (inactive); in the experiment on SNB-19, 14.6 µM (inactive); with TK-10, 17.4 µM (inactive). In addition, in the experiment on UACC-257, the GI50 was 18.4 µM (inactive).

`COC1=C2C[C@](OC)(C#CC=CC#CC2O)CC1(C)C` (stereo not given in full): the GI50 with 786-0 is > 100 µM (inactive); in the experiment on ACHN it was > 100 µM (inactive); in the experiment with CCRF-CEM, 34.4 µM (inactive); in the experiment with COLO 205, > 100 µM (inactive); in the experiment on HCT-15 it was more than 100 µM; in the experiment with K562, 54.8 µM (inactive). Also, the GI50 in the experiment on MDA-MB-231 is > 100 µM (inactive); in the experiment on MDA-MB-435, > 100 µM (inactive); in the experiment with MDA-N it was > 100 µM (inactive); in the experiment with MOLT-4 it was 49 µM (inactive); with OVCAR-3, > 100 µM (inactive); in the experiment on PC-3, > 100 µM (inactive). For the same molecule, the GI50 in the experiment on SF-295, in the experiment on SK-MEL-28, with SK-MEL-5, with SNB-19, in the experiment with TK-10 and with UACC-257 was > 100 µM (inactive) each time.

As to `COC(=O)C1CCC(=O)N1CN(C(C)=O)c1cccc(O)c1` (stereo not given), the GI50 in the experiment with 786-0 was > 100 µM (inactive); in the experiment with ACHN, > 100 µM (inactive); with COLO 205, > 100 µM (inactive); with HCT-15 it was more than 100 µM; in the experiment with K562 it was > 100 µM (inactive); with M14, > 100 µM (inactive). For the same molecule, the GI50 in the experiment with MDA-MB-231, in the experiment with MDA-MB-435, with MDA-N, with MOLT-4, with OVCAR-3 and in the experiment with PC-3 was > 100 µM (inactive) throughout. For the same molecule, the GI50 in the experiment with SF-295, in the experiment with SK-MEL-28, with SK-MEL-5, in the experiment on SK-OV-3, with SNB-19 and with TK-10 was > 100 µM (inactive) each time. For the same molecule, the GI50 in the experiment on UACC-257 is > 100 µM (inactive).

As to `Cc1c(C#N)c2ccccc2c2nc3ccccc3n12`, the GI50 is 37.9 µM (inactive) in the experiment with 786-0; 64.1 µM (inactive) in the experiment on ACHN; > 100 µM (inactive) with CCRF-CEM; more than 100 µM with HCT-15; > 100 µM (inactive) with K562; 20.6 µM (inactive) with MDA-MB-231. In addition, the GI50 in the experiment on MDA-MB-435 was > 100 µM (inactive); with MDA-N, 67.6 µM (inactive); with MOLT-4 it was 47.5 µM (inactive); in the experiment on OVCAR-3, > 100 µM (inactive); in the experiment on PC-3, > 100 µM (inactive); in the experiment with SF-295, > 100 µM (inactive). Besides, the GI50 with SK-MEL-28 was > 100 µM (inactive); in the experiment on SK-MEL-5 it was 5.82 µM (inactive); in the experiment with SK-OV-3 it was 98.9 µM (inactive); with SNB-19 it was > 100 µM (inactive); in the experiment with TK-10 it was > 100 µM (inactive); in the experiment on UACC-257, > 100 µM (inactive).

For the molecule `C#CCOC(=O)c1ccccc1O`, the GI50 is > 100 µM (inactive) with 786-0; > 100 µM (inactive) in the experiment on ACHN; > 100 µM (inactive) with CCRF-CEM; > 100 µM (inactive) in the experiment with COLO 205; more than 100 µM in the experiment on HCT-15; > 100 µM (inactive) with K562. Also, the GI50 in the experiment with M14, in the experiment on MDA-MB-231, in the experiment with MDA-MB-435, in the experiment on MDA-N, with MOLT-4 and in the experiment on PC-3 was > 100 µM (inactive) each time. For the same molecule, the GI50 in the experiment on SF-295, in the experiment on SK-MEL-5, in the experiment with SK-OV-3, in the experiment on SNB-19, with TK-10 and in the experiment with UACC-257 was > 100 µM (inactive) in each case.

Regarding `CN(/N=C/c1ccc(Cl)c(Cl)c1)C1=NCCN1`, the GI50 is 16.4 µM (inactive) with 786-0; 31.9 µM (inactive) with ACHN; 16.7 µM (inactive) with CCRF-CEM; 17.7 µM (inactive) in the experiment with COLO 205; 30.8 µM in the experiment on HCT-15; 12.1 µM (inactive) in the experiment with K562. Moreover, the GI50 was 16.5 µM (inactive) in the experiment on M14; 23 µM (inactive) in the experiment on MDA-MB-231; 19.5 µM (inactive) with MDA-MB-435; 15.7 µM (inactive) in the experiment on MDA-N; 13.7 µM (inactive) in the experiment with MOLT-4; 28.6 µM (inactive) in the experiment on OVCAR-3. For the same molecule, the GI50 in the experiment on PC-3 is 11.9 µM (inactive); in the experiment with SF-295, 24.8 µM (inactive); in the experiment on SK-MEL-5, 16.4 µM (inactive); in the experiment with SK-OV-3, 22.4 µM (inactive); in the experiment with SNB-19, 55.8 µM (inactive); in the experiment with TK-10, 46.2 µM (inactive). Besides, in the experiment on UACC-257, the GI50 was 20.1 µM (inactive).

Turning to `COc1ccc(/C=C2\C(=O)N(C)C(=O)c3cc(OC)c(OC)cc32)cc1OC`, the GI50 with 786-0 was 43.5 µM (inactive); in the experiment on ACHN, 30.5 µM (inactive); in the experiment with CCRF-CEM, 20.2 µM (inactive); in the experiment with COLO 205, 16.4 µM (inactive); in the experiment with HCT-15, 30.8 µM; in the experiment with K562, 28.2 µM (inactive). Further, the GI50 in the experiment with M14 was 65.2 µM (inactive); in the experiment with MDA-MB-231, 39.4 µM (inactive); in the experiment on MDA-MB-435, 34.5 µM (inactive); with MDA-N it was 24.3 µM (inactive); in the experiment on MOLT-4 it was 52.1 µM (inactive); in the experiment on OVCAR-3, 37.4 µM (inactive). The GI50 in the experiment on PC-3 was 49.7 µM (inactive); with SF-295, 37.8 µM (inactive); with SK-MEL-5 it was 28.8 µM (inactive); with SNB-19 it was 43.3 µM (inactive); with TK-10, 43.1 µM (inactive); with UACC-257, 47.3 µM (inactive).

In the case of `CC1(C)CC23CC(C)(C)c4cccc(c42)OCc2ccc4ccc5ccc(nc5c4n2)COc2cccc1c23`, the GI50 in the experiment on 786-0 is > 50 µM (inactive); in the experiment on ACHN, > 50 µM (inactive); in the experiment with COLO 205 it was > 50 µM (inactive); with HCT-15 it was more than 50 µM; in the experiment with K562 it was > 50 µM (inactive); in the experiment with M14 it was > 50 µM (inactive). For the same molecule, the GI50 with MDA-MB-231, in the experiment with MDA-MB-435, in the experiment on MDA-N, in the experiment on MOLT-4, in the experiment on OVCAR-3 and in the experiment on PC-3 was > 50 µM (inactive) in each case. The GI50 in the experiment on SF-295 was > 50 µM (inactive); in the experiment with SK-MEL-28, > 50 µM (inactive); with SK-MEL-5, > 50 µM (inactive); in the experiment on SK-OV-3 it was > 50 µM (inactive); in the experiment on SNB-19, > 5 µM (inactive); with TK-10 it was > 50 µM (inactive). The GI50 in the experiment on UACC-257 was > 50 µM (inactive).

Take `CCCCCCc1cc2cc(C(=O)Nc3ccccc3)c(=N)oc2cc1O`: the GI50 with 786-0 is 3.21 µM (inactive); with ACHN it was 3.44 µM (inactive); in the experiment on CCRF-CEM it was 3.47 µM (inactive); in the experiment on COLO 205 it was 38.4 µM (inactive); with HCT-15, 3.45 µM; with M14 it was 3.6 µM (inactive). Moreover, the GI50 in the experiment with MDA-MB-231 was 3.36 µM (inactive); in the experiment with MDA-MB-435, 3.53 µM (inactive); in the experiment with MDA-N it was 3.88 µM (inactive); in the experiment on MOLT-4, 2.16 µM (inactive); in the experiment on OVCAR-3 it was 2.09 µM (inactive); in the experiment with PC-3, 2.86 µM (inactive). Also, the GI50 in the experiment on SF-295 is 3.05 µM (inactive); in the experiment on SK-MEL-28 it was 6.87 µM (inactive); with SK-MEL-5, 2.56 µM (inactive); in the experiment with SK-OV-3 it was 3.34 µM (inactive); in the experiment with SNB-19, 3.33 µM (inactive); in the experiment on TK-10, 6.78 µM (inactive). Further, the GI50 in the experiment with UACC-257 is 4.63 µM (inactive).

`Oc1nc(S)nc2c1C(c1ccc(Cl)cc1)c1c(O)nc(S)nc1O2`: the GI50 in the experiment on 786-0 is > 100 µM (inactive); with ACHN, > 100 µM (inactive); in the experiment with CCRF-CEM, > 100 µM (inactive); in the experiment with COLO 205 it was > 100 µM (inactive); in the experiment with HCT-15, more than 100 µM; in the experiment on K562 it was > 100 µM (inactive). Also, the GI50 in the experiment on M14, in the experiment on MDA-MB-231, in the experiment with MDA-MB-435, in the experiment on MDA-N, in the experiment with MOLT-4 and in the experiment with OVCAR-3 was > 100 µM (inactive) each time. Moreover, the GI50 in the experiment on PC-3, in the experiment on SF-295, in the experiment on SK-MEL-28, in the experiment on SK-MEL-5, in the experiment with SNB-19 and in the experiment on TK-10 was > 100 µM (inactive) throughout. In addition, in the experiment with UACC-257, the GI50 is > 100 µM (inactive).
